In patent publication US20260272879A1, “ANION-BINDING AROMATIC OLIGOAMIDE MACROCYCLES AND METHODS OF MAKING AND USING SAME” (The Research Foundation for The State University of New York, priority 2023, published 2026):
Where two headings read alike, the source gives them in different places.

How the values were obtained:
[1] = system: Human bronchial epithelial (HBE) cells from cystic fibrosis (CF) patients; assay: Airway surface liquid (ASL) thickness, confocal imaging; assay type: cell-based; conditions: CF HBE cultures, c5a 5 μM with 1% DMSO in PBS apically daily for five days
Protocol: Primary Cell Culture. Human bronchial epithelial (HBE) cells from cystic fibrosis (CF) patients (DF508 homozygous) were obtained from the UNC-CF Tissue Culture Core under the auspices of protocols approved by the UNC Institutional Review Board using previously reported methodologies. Cultures on 12-mm permeable supports (Transwell-Clear; Costar) were maintained in a well-humidified (>95%) incubator (5% CO2) at 37° C. during cellular differentiation (3-4 weeks after plating).
Confocal imaging studies. CF HBE cultures were treated with apically with c5a (5 μM in 1% DMSO) or vehicle control (1% DMSO in PBS) daily for 5 days prior to imaging. The height of the luminal airway surface layer (ASL) was visualized by adding a cell-impermeant dye (Texas Red-dextran 70 kDa; 0.1%) to the c5a and vehicle control on the evening prior to imaging. […] The thickness of the ASL layer in c5a and control cultures were measured by high-speed X-Z confocal scanning. […]
Human bronchial epithelial (HBE) cells isolated from CF patients were cultured at the time of lung transplant as a model system for diseased airways. […] The thickness of the ASL layer on the surface of the HBE cell layer can be conveniently measured by determining the thickness of the fluorescently-labeled fluid layer on the airway surface using X-Z confocal scanning microscopy (FIG. 117b). […]

[2] = EC50 of halide transport, HPTS assay; assay type: biochemical; conditions: POPC LUVs, entrapped HPTS
Protocol: The time course of the emission intensity of intravesicular HPTS, It, was obtained first by ratiometric analysis (Rt=It,450/It,405), followed by normalization according to equation (S1),
where R0=Rt at t=100 s, before the addition of c5a; R∞=Rt at t=350 s upon the addition of Triton X-100. Normalized intensity ratio at 300 s just before addition of Triton X-100 was defined as the transmembrane activity (Y) which was analyzed with the Hill equation (S2) to give effective concentration EC50 and the Hill coefficient n, (S2)
where Y0 is Y in absence of carrier, […], and c is the carrier concentration in a cuvette.

[3] = Isothermal titration calorimetry (ITC), Br^−; assay type: binding; conditions: 25° C.
Protocol: (§1) Isothermal titration calorimetry (ITC) experiments were performed using a MicroCal VP-ITC. ITC experiments were conducted by adding ~1.5 mL of a solution containing c5a to the sample cell. Followed by titrating 10 μL aliquots of a solution containing the corresponding TBA·X salt (~10-14× concentration of c5a solution) from the syringe into the sample cell. Heats of dilution were obtained by titrating 10 μL aliquots of the TBA·X solution from the syringe into the sample cell in the absence of c5a. The heats of dilution were subtracted from the raw data. ITC data processing and curve fitting was done using the Origin program (MicroCal).
(§2) Two-step competition ITC experiments for determining the Ka of c5a and iodide. In CH3CN:CHCl3 (5:95, v/v), the binding affinity of c5a for I^− was too high to be determined with direct NMR or ITC titration. Instead, two-step competition ITC experiments with Cl^− as the competitor were performed.

[4] = Ion transport with different MCl salts, HPTS assay; assay type: biochemical; conditions: POPC LUVs, 100 mM MCl, pH 7.0, 25° C.
Protocol: Inside vesicles: 10 mM HEPES, 100 mM MCI (M=Li, Na, K, Rb), 1 mM HPTS, pH 7.0. Outside vesicles: 10 mM HEPES, 100 mM MCI, pH 7.0. A base pulse (20 μL of 0.5 M NaOH) was applied to each vesicular solution at 50 s, followed by adding 20 μL of c5a in DMF at 100 s. For each group, the vesicles were lysed after 200 s by adding 0.1% Triton X-100 to obtain the maximum emission intensity for normalization. The emission intensities of the intravesicular HPTS at 510 nm, I405 and I450, corresponding to two excitation wavelengths (405 and 450 nm) were monitored simultaneously, based on which the normalized intensity ratios (I405/I450) of the two emision intensities were obtained.

[5] = Isothermal titration calorimetry (ITC), Cl^−; assay type: binding; conditions: 25° C.
Protocol: as §1, §2

[6] = Halide transport, lucigenin assay; assay type: biochemical; conditions: POPC LUVs, inside 100 mM NaNO3 + 1 mM lucigenin, outside 100 mM NaX, pH 7.0
Text: Determination of halide transport with the lucigenin assay.

[7] = Isothermal titration calorimetry (ITC), NO3^−; assay type: binding; conditions: DMSO:CHCl3 (5:95, v/v), 25° C.
Protocol: as §1, §2

[8] = Isothermal titration calorimetry (ITC), BF4^−; assay type: binding; conditions: DMSO:CHCl3 (5:95, v/v), 25° C.
Protocol: as §1, §2

SMILES: CCCCCCCCOCC(C)(C)C(=O)Nc1ccc2cc1C(=O)Nc1ccc(NC(=O)C(C)(C)COCCCCCCCC)c(c1)C(=O)Nc1ccc(NC(=O)C(C)(C)COCCCCCCCC)c(c1)C(=O)Nc1ccc(NC(=O)C(C)(C)COCCCCCCCC)c(c1)C(=O)Nc1ccc(NC(=O)C(C)(C)COCCCCCCCC)c(c1)C(=O)N2 [c5a]
- increase of ASL thickness vs control CF [1]: more than 50%
- ASL thickness ([1]; X-Z confocal): 7.8±1.7 μm
- EC50 ([2]; c5a 0.05 to 10 μM, base pulse, read-out: EC50 for the transport of Br^−): 4.11 µM
- EC50 ([2]; c5a 0.05 to 10 μM, base pulse, read-out: EC50 for the transport of Cl^−): 0.31 µM
- EC50 ([2]; c5a up to 10 μM, too large to be measured, read-out: EC50 for the transport of I^−): > 10 µM
- Association constant Ka, 1:1 complex with Br^− ([3]; CH3CN:CHCl3 (5:95, v/v)): (1.79 ± 0.34) × 10^7 M^−1
- Association constant Ka, 1:1 complex with Br^− ([3]; DMSO:CHCl3 (5:95, v/v)): (1.37 ± 0.04) × 10^4 M^−1
- transmembrane ion transport in the presence of LiCl, NaCl, KCl, or RbCl [4]: insignificant difference
- Association constant Ka, 1:1 complex with Cl^− ([5]; CH3CN:CHCl3 (5:95, v/v)): (2.34 ± 0.24) × 10^6 M^−1
- Association constant Ka, 1:1 complex with Cl^− ([5]; DMSO:CHCl3 (5:95, v/v)): (1.60 ± 0.10) × 10^4 M^−1
- sequence of halide transport efficiency (reduction of lucigenin fluorescence) [6]: Cl^−>Br^−>I^−
- Association constant Ka, 1:1 complex with NO3^− [7]: (1.30 ± 0.10) × 10^6 M^−1
- Association constant Ka, 1:1 complex with BF4^− [8]: (8.70 ± 0.40) × 10^5 M^−1
